Assay results reported in ChEMBL document CHEMBL1133931, “Anti-AIDS agents. Part 47: Synthesis and anti-HIV activity of 3-substituted 3',4'-Di-O-(S)-camphanoyl-(3'R,4'R)-(+)-cis-khellactone derivatives” (Bioorg Med Chem Lett, 2001).

Test system: H9
Assay: Inhibitory concentration against HIV-1 replication in acutely infected H9 lymphocytes
Type: functional, cell-based
Conditions: Homo sapiens
Molecule CCN(CC)Cc1cc2ccc3c(c2oc1=O)[C@@H](OC(=O)C12CCC(C)(C(=O)O1)C2(C)C)[C@@H](OC(=O)C12CCC(C)(C(=O)O1)C2(C)C)C(C)(C)O3 (stereo partly drawn) has an EC50 of 690 nM. Molecule CC1(C)Oc2ccc3cc(C(Br)Br)c(=O)oc3c2[C@@H](OC(=O)C23CCC(C)(C(=O)O2)C3(C)C)[C@H]1OC(=O)C12CCC(C)(C(=O)O1)C2(C)C (stereo partly drawn) has an EC50 of 0.119 nM. Work on CC1(C)Oc2ccc3cc(CO)c(=O)oc3c2[C@@H](OC(=O)C23CCC(C)(C(=O)O2)C3(C)C)[C@H]1OC(=O)C12CCC(C)(C(=O)O1)C2(C)C (stereo partly drawn) yielded an EC50 of 0.188 nM. With CC1(C)Oc2ccc3cc(CBr)c(=O)oc3c2[C@@H](OC(=O)C23CCC(C)(C(=O)O2)C3(C)C)[C@H]1OC(=O)C12CCC(C)(C(=O)O1)C2(C)C (stereo partly drawn) the EC50 was 85.4 nM. With CC1(C)Oc2ccc3cc(CN)c(=O)oc3c2[C@@H](OC(=O)C23CCC(C)(C(=O)O2)C3(C)C)[C@H]1OC(=O)C12CCC(C)(C(=O)O1)C2(C)C (stereo partly drawn) the EC50 was 390 nM. In the case of CC(=O)OCc1cc2ccc3c(c2oc1=O)[C@@H](OC(=O)C12CCC(C)(C(=O)O1)C2(C)C)[C@@H](OC(=O)C12CCC(C)(C(=O)O1)C2(C)C)C(C)(C)O3 (stereo partly drawn), the EC50 is reported as 1.03 nM.

Test system: H9
Assay: Inhibitory concentration required to inhibit uninfected H9 cell growth by 50%
Type: functional, cell-based
Conditions: Homo sapiens
With CCN(CC)Cc1cc2ccc3c(c2oc1=O)[C@@H](OC(=O)C12CCC(C)(C(=O)O1)C2(C)C)[C@@H](OC(=O)C12CCC(C)(C(=O)O1)C2(C)C)C(C)(C)O3 (stereo partly drawn) the IC50 was 43000 nM. Work on CC1(C)Oc2ccc3cc(C(Br)Br)c(=O)oc3c2[C@@H](OC(=O)C23CCC(C)(C(=O)O2)C3(C)C)[C@H]1OC(=O)C12CCC(C)(C(=O)O1)C2(C)C (stereo partly drawn) yielded an IC50 of 3200 nM. Molecule CC1(C)Oc2ccc3cc(CO)c(=O)oc3c2[C@@H](OC(=O)C23CCC(C)(C(=O)O2)C3(C)C)[C@H]1OC(=O)C12CCC(C)(C(=O)O1)C2(C)C (stereo partly drawn) has an IC50 of 35400 nM. With CC1(C)Oc2ccc3cc(CBr)c(=O)oc3c2[C@@H](OC(=O)C23CCC(C)(C(=O)O2)C3(C)C)[C@H]1OC(=O)C12CCC(C)(C(=O)O1)C2(C)C (stereo partly drawn) the IC50 was 3380 nM. Molecule CC1(C)Oc2ccc3cc(CN)c(=O)oc3c2[C@@H](OC(=O)C23CCC(C)(C(=O)O2)C3(C)C)[C@H]1OC(=O)C12CCC(C)(C(=O)O1)C2(C)C (stereo partly drawn) has an IC50 of 32800 nM. In the case of CC(=O)OCc1cc2ccc3c(c2oc1=O)[C@@H](OC(=O)C12CCC(C)(C(=O)O1)C2(C)C)[C@@H](OC(=O)C12CCC(C)(C(=O)O1)C2(C)C)C(C)(C)O3 (stereo partly drawn), the IC50 is reported as 3340 nM.

Test system: not listed separately
Assay: Therapeutic index (IC50/EC50) of compound was determined in acutely infected H9 cell
Type: cell-based
Conditions: human, acutely infected H9 cells; read-out: TI
For CC1(C)Oc2ccc3ccc(=O)oc3c2[C@@H](OC(=O)C23CCC(C)(C(=O)O2)C3(C)C)[C@H]1OC(=O)C12CCC(C)(C(=O)O1)C2(C)C (stereo partly drawn), the selectivity ratio was 137000. With CCN(CC)Cc1cc2ccc3c(c2oc1=O)[C@@H](OC(=O)C12CCC(C)(C(=O)O1)C2(C)C)[C@@H](OC(=O)C12CCC(C)(C(=O)O1)C2(C)C)C(C)(C)O3 (stereo partly drawn) the selectivity ratio was 62. Work on CC1(C)Oc2ccc3cc(C(Br)Br)c(=O)oc3c2[C@@H](OC(=O)C23CCC(C)(C(=O)O2)C3(C)C)[C@H]1OC(=O)C12CCC(C)(C(=O)O1)C2(C)C (stereo partly drawn) yielded a selectivity ratio of 26900. With CC1(C)Oc2ccc3cc(CO)c(=O)oc3c2[C@@H](OC(=O)C23CCC(C)(C(=O)O2)C3(C)C)[C@H]1OC(=O)C12CCC(C)(C(=O)O1)C2(C)C (stereo partly drawn) the selectivity ratio was 188000. Molecule CC1(C)Oc2ccc3cc(CBr)c(=O)oc3c2[C@@H](OC(=O)C23CCC(C)(C(=O)O2)C3(C)C)[C@H]1OC(=O)C12CCC(C)(C(=O)O1)C2(C)C (stereo partly drawn) has a selectivity ratio of 40. With CC(=O)OCc1cc2ccc3c(c2oc1=O)[C@@H](OC(=O)C12CCC(C)(C(=O)O1)C2(C)C)[C@@H](OC(=O)C12CCC(C)(C(=O)O1)C2(C)C)C(C)(C)O3 (stereo partly drawn) the selectivity ratio was 3240.
